Consider 6 compounds from patent US20240101576A1, “HETEROCYCLIC INHIBITORS OF EGFR AND/OR HER2, FOR USE IN THE TREATMENT OF CANCER” (Scorpion Therapeutics, Inc., priority 2020, published 2024).

Structures are written as SMILES.

Assay type in all cases: cell-based
In assay [1] the target is T1, EGFR exon 19del (Ba/F3 cells) (Homo sapiens, UniProt P00533). As to the kind of experiment: Inhibitor activity on EGFR-dependent cell growth (CellTiter-Glo, 72 h), Ba/F3 EGFR exon 19del. The following applies: Ba/F3 EGFR exon 19del cell growth, read-out: BaF3 Del19 IC50. The gist of the method:
(§1)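 Steps: seed Ba/F3 EGFR-mutant pools (800 cells/well FQEA and exon 19del; 600 L858R/C797S; 400 L858R). Add 120 nL of serially diluted compound and incubate 72 h. Equilibrate to room temperature, add CellTiter-Glo and read after 30 min. Fit IC50.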
(In general: ATP-based viability assays read luminescence as a measure of living cells.)

In assay [2] the target is T2, EGFR exon 20 SVD Ins D770_N771 (Ba/F3 cells) (Homo sapiens, UniProt P00533, INS770SVD).
T2 construct: expressed in transfected cells; host or cells: Ba/F3 (murine pro-B cells), retroviral transduction, puromycin selection, IL3-independent pool
As to the kind of experiment: Inhibitor activity on EGFR-dependent cell growth (CellTiter-Glo, 72 h), Ba/F3 EGFR exon 20 SVD Ins. To be noted: read-out: BaF3 SVD IC50. The gist of the method:
(§2)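 IC50s derive from a sigmoidal dose–response fit of CellTiter-Glo signal. The signal was normalised between […]-treated cells and cell-free medium. Ba/F3 mutant-EGFR cells, seeded at 400–800/well depending on the line, had 72 h of exposure to a 10-point, 3-fold compound series.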

Assay [3] concerns the target T3, EGFR exon 20 ASV Ins V769_D770 (Ba/F3 cells) (Homo sapiens, UniProt P00533, INS769ASV).
T3 construct: expressed in transfected cells; host or cells: Ba/F3 (murine pro-B cells), retroviral transduction, puromycin selection, IL3-independent pool
In words: Inhibitor activity on EGFR-dependent cell growth (CellTiter-Glo, 72 h), Ba/F3 EGFR exon 20 ASV Ins. The following applies: read-out: BaF3 ASV IC50. The gist of the method: as §2

In assay [4] the target is T4, EGFR exon 20 FQEA Ins A763_V764 (Ba/F3 cells) (Homo sapiens, UniProt P00533, INS763FQEA).
T4 construct: expressed in transfected cells; host or cells: Ba/F3 (murine pro-B cells), retroviral transduction, puromycin selection, IL3-independent pool
As to the kind of experiment: Inhibitor activity on EGFR-dependent cell growth (CellTiter-Glo, 72 h), Ba/F3 EGFR exon 20 FQEA Ins. To be noted: read-out: BaF3 FQEA IC50. An outline of the steps: as §1

Assay [5] concerns the target T5, EGFR exon 20 NPG Ins D770_N771 (Ba/F3 cells) (Homo sapiens, UniProt P00533, INS770NPG).
T5 construct: expressed in transfected cells; host or cells: Ba/F3 (murine pro-B cells), retroviral transduction, puromycin selection, IL3-independent pool
As to the kind of experiment: Inhibitor activity on EGFR-dependent cell growth (CellTiter-Glo, 72 h), Ba/F3 EGFR exon 20 NPG Ins. To be noted: read-out: BaF3 NPG IC50. The gist of the method: as §2

Assay [6] concerns the target T6, EGFR WT (Ba/F3 cells) (Homo sapiens, UniProt P00533).
T6 construct: expressed in transfected cells; host or cells: Ba/F3 (murine pro-B cells), retroviral transduction, puromycin selection, maintained with EGF
In words: Inhibitor activity on EGFR-dependent cell growth (CellTiter-Glo, 72 h), Ba/F3 EGFR WT. The following applies: read-out: BaF3 WT IC50. An outline of the steps:
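This growth assay used Ba/F3 cells that depend on wild-type EGFR and are kept in EGF without IL3. Compounds were made up as 10 mM DMSO stocks and diluted 3-fold over 10 points. 120 nL went onto 600 cells/well. After 72 hours, 40 μL CellTiter-Glo was added and luminescence read on EnVision after 30 min.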

The target of assay [7] is T7, EGFR L858R/C797S (Ba/F3 cells) (Homo sapiens, UniProt P00533, C797S/L858R).
T7 construct: expressed in transfected cells; host or cells: Ba/F3 (murine pro-B cells), retroviral transduction, puromycin selection, IL3-independent pool
In words: Inhibitor activity on EGFR-dependent cell growth (CellTiter-Glo, 72 h), Ba/F3 EGFR L858R/C797S. The following applies: read-out: BaF3 L858R/C797S IC50. The source says:
Example A. Inhibitor Activity on EGFR-Dependent Cell Growth
Cell lines are generated by transducing Ba/F3 cells with retroviruses containing vectors with EGFR WT, EGFR L858R, EGFR exon 19del, EGFR L858R/C797S, EGFR exon 20 NPG Ins D770_N771, EGFR exon 20 ASV Ins V769_D770, EGFR exon 20 SVD Ins D770_N771, or EGFR exon 20 FQEA Ins A763_V764 genes and a puromycin selection marker. Transduced cells are selected with puromycin for 7 days and are then be transferred into culture media without Interleukin 3 (IL3). EGFR WT cells are maintained with supplemental EGF. Surviving cells are confirmed to express EGFR by Western blot and maintained as a pool. The IC50 date were included in Table 6 and Table 7.
(§3) 1.1 Cells are harvested from flask into cell culture medium and the cell number counted.
1.2 Cells are diluted with culture medium to the desired density and 40 μL of cell suspension is added into each well of 384-well cell culture plate and the seeding density is 800 (FQEA, exon 19del), 600 (WT, NPG, L858R/C797S), or 400 (ASV, SVD, L858R) cells/well.
(§4) 2 Compound Preparation and Treatment
(§5) 2.1 Test compounds are dissolved to 10 mM in a DMSO stock solution. 45 μL of stock solution is transferred to a 384 polypropylene plate (pp-plate). Perform 3-fold, 10-point dilution via transferring 15 μL compound into 30 μL DMSO using a TECAN (EVO200) liquid handler.
(§6) 2.2 Spin plates at room temperature at 1,000 RPM for 1 minute.
2.3 Transfer 120 nL of diluted compound from compound source plate into the cell plate.
2.4 After compound treatment for 72 hours, perform CTG detection for compound treatment plates as described in “Detection” section.
3.1 Plates are removed from incubators and equilibrated at room temperature for 15 minutes.
3.2 Thaw the CellTiter Glo reagents and allow to equilibrate to room temperature before the experiment.
3.3 Add 40 μL of CellTiter-Glo reagent into each well (at 1:1 to culture medium). Then place the plates at room temperature for 30 min followed by reading on EnVision.
4.1 Inhibition activity is calculated following the formula below:
% Inhibition=100×(LumHC−LumSample)/(LumHC−LumLC) • where HC is obtained from cells treated with 0.1% DMSO only; and LC is obtained from culture medium only.
4.2 2. Calculate the IC50 by fitting the Curve using Xlfit (v5.3.1.3), equation 201.
Y=Bottom+(Top−Bottom)/(1+10^((Log IC50−X)*HillSlope))

Assay [8] concerns the target T7, EGFR L858R/C797S (Ba/F3 cells). In words: Inhibitor activity on EGFR phosphorylation (pEGFR AlphaLISA, 2 h), Ba/F3 EGFR L858R/C797S.
From the text: (§7) Example B. Inhibitor Activity on EGFR phosphorylation (pEGFR)
(§8) EGFR mutant Ba/F3 cells were generated by transduction with retrovirus containing vectors expressing EGFR L858R, EGFR exon 19del, EGFR L858R/C797S, EGFR exon 20 NPG Ins D770_N771, EGFR exon 20 ASV Ins V769_D770, or EGFR exon 20 SVD Ins D770_N771 genes along with a puromycin selection marker. Transduced cells are selected with puromycin for 7 days and are then be transferred into culture media without Interleukin 3 (IL3). Surviving cells are confirmed to express EGFR by Western blot and maintained as a pool. CUTO14 cells were obtained from Dr. Robert C. Doebele at the University of Colorado. The IC50 date are included in Table 6 and Table 7.
as §3
(§9) 1.2 Cells are diluted with culture medium to the desired density and 40 μL of cell suspension is added into each well of 384-well cell culture plate and the seeding density is 50K cells/well (Ba/F3) or 12.5K cells/well (CUTO14).
as §4, §5, §6
(§10) 2.3 Transfer 5 nL of diluted compound from compound source plate into the cell plate.
(§11) 2.4 After compound treatment for 2 hours, perform pEGFR detection by AlphaLISA for compound treatment plates as described in “Detection” section.
(§12) 3 Detection by pEGFR AlphaLISA (Perkin-Elmer)
(§13) 3.1 Plates are removed from incubators and equilibrated at room temperature for 10 minutes, and media was removed
(§14) 3.2 10 μL of lysis buffer is added and plates shaken at 600 rpm for 1 hr.
(§15) 3.3 Prepare acceptor mix just before use and dispense 5 μL of acceptor mix to all the wells. Shake 350 rpm for Ihr in the dark
(§16) 3.4 Prepare donor mix under low light conditions prior to use. Dispense 5 μL of donor mix to all the wells. Mix well on the shaker, seal and wrap in aluminum foil and incubate 1.5 hrs at room temperature in the dark
(§17) 3.5 Transfer 18.5 μL mixture to OptiPlate 384, and read using an Envision. The IC50 date were included in Table 6 and Table 7.
On the technique in general: Alpha assays give light when donor and acceptor beads are brought close together.

Assay [9] concerns the target T1, EGFR exon 19del (Ba/F3 cells). In words: Inhibitor activity on EGFR phosphorylation (pEGFR AlphaLISA, 2 h), Ba/F3 EGFR exon 19del. To be noted: read-out: Del19 IC50 (pEGFR).
From the text: as §7, §8, §3, §9, §4, §5, §6, §10, §11, §12, §13, §14, §15, §16, §17

The target in assay [10] is T8, EGFR L858R (Ba/F3 cells) (Homo sapiens, UniProt P00533, L858R).
T8 construct: expressed in transfected cells; host or cells: Ba/F3 (murine pro-B cells), retroviral transduction, puromycin selection, IL3-independent pool
In words: Inhibitor activity on EGFR phosphorylation (pEGFR AlphaLISA, 2 h), Ba/F3 EGFR L858R.
From the text: as §7, §8, §3, §9, §4, §5, §6, §10, §11, §12, §13, §14, §15, §16, §17

Assay [11] deals with T8, EGFR L858R (Ba/F3 cells). As to the kind of experiment: Inhibitor activity on EGFR-dependent cell growth (CellTiter-Glo, 72 h), Ba/F3 EGFR L858R. To be noted: read-out: BaF3 L858R IC50. The gist of the method: as §1

T7 sequence (P00533 25-1210 C797S/L858R): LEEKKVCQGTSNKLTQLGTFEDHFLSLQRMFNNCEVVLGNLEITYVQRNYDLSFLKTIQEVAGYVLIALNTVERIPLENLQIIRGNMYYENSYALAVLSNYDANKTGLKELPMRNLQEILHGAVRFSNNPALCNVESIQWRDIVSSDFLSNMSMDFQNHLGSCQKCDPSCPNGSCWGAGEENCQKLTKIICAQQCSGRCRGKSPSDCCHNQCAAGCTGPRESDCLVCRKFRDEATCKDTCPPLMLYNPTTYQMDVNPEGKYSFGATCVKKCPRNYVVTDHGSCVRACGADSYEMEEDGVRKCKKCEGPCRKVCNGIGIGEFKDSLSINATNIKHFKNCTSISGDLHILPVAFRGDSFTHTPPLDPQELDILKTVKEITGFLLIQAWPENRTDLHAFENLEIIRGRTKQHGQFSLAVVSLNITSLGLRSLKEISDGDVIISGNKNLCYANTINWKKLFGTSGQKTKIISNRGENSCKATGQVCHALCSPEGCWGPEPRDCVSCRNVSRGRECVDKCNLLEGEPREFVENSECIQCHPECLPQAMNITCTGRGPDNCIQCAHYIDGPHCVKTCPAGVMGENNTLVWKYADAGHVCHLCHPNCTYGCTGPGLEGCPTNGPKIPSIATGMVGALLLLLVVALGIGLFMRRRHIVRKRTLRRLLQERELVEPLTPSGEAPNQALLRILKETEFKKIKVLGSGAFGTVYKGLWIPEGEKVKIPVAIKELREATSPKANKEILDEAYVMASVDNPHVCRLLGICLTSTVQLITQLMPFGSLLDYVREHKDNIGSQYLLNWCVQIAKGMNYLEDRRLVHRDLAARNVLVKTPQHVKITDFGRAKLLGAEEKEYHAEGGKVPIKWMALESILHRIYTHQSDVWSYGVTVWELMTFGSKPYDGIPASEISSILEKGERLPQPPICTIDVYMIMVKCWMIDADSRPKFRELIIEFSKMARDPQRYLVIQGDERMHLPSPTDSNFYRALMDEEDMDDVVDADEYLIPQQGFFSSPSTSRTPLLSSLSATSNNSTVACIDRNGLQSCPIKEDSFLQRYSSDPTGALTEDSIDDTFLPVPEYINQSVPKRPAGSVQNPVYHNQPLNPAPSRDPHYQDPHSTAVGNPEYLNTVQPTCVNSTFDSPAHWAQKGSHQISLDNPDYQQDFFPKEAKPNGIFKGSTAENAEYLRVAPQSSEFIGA
T5 sequence (P00533 with tags, fused parts or gaps INS770NPG): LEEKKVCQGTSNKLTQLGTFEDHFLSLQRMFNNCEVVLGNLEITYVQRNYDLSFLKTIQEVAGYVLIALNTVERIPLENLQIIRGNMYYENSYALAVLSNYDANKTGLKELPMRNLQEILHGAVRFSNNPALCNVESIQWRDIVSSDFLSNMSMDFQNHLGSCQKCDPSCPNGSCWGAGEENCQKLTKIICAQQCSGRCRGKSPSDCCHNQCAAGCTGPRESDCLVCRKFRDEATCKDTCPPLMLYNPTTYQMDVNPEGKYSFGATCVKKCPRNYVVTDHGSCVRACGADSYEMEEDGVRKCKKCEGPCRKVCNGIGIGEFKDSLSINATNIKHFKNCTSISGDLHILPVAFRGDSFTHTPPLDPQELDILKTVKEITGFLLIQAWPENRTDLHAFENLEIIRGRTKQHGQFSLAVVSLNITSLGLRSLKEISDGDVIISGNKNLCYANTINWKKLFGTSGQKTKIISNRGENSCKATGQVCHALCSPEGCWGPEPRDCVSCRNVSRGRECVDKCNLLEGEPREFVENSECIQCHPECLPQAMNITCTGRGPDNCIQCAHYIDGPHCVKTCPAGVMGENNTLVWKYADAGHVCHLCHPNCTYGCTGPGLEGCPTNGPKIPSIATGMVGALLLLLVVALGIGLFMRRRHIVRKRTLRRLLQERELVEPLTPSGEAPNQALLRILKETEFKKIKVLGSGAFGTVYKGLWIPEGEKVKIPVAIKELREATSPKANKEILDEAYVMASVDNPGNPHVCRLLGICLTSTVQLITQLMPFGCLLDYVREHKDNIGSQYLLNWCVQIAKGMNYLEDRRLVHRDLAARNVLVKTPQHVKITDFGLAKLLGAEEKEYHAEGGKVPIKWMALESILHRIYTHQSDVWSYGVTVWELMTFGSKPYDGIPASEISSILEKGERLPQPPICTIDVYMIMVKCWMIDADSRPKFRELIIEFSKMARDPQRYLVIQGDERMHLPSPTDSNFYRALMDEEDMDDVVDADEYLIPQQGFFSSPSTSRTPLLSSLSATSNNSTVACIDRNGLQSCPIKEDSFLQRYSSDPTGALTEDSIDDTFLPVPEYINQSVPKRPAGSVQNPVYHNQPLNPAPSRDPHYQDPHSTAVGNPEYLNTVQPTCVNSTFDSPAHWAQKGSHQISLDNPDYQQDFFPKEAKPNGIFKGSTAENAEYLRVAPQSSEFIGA
T3 sequence (P00533 with tags, fused parts or gaps INS769ASV): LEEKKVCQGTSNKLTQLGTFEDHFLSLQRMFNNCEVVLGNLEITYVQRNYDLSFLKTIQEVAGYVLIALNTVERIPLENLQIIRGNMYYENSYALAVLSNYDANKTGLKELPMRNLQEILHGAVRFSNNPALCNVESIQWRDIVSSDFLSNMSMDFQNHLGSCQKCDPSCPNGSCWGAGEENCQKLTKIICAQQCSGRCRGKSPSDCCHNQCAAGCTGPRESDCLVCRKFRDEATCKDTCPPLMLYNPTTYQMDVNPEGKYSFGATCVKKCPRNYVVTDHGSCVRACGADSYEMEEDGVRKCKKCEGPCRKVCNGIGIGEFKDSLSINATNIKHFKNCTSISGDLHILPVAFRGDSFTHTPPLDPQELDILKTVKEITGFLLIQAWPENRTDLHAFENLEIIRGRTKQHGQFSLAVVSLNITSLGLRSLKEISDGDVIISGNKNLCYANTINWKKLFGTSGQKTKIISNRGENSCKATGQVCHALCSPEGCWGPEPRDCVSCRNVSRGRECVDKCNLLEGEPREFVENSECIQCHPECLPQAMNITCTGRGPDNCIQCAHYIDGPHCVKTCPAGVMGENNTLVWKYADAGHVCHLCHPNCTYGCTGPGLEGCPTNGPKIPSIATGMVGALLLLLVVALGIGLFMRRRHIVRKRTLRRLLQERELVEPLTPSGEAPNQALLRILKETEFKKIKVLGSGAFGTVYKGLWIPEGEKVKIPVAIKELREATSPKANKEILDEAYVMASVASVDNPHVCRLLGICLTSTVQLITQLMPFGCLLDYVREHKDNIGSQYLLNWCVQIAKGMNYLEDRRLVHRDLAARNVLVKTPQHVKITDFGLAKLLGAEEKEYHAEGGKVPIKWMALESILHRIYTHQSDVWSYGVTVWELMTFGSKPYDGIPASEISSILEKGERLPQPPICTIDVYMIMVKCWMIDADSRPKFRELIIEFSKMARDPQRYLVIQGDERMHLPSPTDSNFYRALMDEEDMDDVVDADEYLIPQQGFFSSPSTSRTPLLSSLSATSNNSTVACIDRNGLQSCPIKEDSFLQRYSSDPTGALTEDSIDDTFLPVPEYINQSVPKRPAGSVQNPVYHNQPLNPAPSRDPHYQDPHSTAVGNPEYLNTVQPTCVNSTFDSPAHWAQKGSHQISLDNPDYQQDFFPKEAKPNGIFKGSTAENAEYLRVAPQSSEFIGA
T1 sequence (P00533 with tags, fused parts or gaps DEL746-750): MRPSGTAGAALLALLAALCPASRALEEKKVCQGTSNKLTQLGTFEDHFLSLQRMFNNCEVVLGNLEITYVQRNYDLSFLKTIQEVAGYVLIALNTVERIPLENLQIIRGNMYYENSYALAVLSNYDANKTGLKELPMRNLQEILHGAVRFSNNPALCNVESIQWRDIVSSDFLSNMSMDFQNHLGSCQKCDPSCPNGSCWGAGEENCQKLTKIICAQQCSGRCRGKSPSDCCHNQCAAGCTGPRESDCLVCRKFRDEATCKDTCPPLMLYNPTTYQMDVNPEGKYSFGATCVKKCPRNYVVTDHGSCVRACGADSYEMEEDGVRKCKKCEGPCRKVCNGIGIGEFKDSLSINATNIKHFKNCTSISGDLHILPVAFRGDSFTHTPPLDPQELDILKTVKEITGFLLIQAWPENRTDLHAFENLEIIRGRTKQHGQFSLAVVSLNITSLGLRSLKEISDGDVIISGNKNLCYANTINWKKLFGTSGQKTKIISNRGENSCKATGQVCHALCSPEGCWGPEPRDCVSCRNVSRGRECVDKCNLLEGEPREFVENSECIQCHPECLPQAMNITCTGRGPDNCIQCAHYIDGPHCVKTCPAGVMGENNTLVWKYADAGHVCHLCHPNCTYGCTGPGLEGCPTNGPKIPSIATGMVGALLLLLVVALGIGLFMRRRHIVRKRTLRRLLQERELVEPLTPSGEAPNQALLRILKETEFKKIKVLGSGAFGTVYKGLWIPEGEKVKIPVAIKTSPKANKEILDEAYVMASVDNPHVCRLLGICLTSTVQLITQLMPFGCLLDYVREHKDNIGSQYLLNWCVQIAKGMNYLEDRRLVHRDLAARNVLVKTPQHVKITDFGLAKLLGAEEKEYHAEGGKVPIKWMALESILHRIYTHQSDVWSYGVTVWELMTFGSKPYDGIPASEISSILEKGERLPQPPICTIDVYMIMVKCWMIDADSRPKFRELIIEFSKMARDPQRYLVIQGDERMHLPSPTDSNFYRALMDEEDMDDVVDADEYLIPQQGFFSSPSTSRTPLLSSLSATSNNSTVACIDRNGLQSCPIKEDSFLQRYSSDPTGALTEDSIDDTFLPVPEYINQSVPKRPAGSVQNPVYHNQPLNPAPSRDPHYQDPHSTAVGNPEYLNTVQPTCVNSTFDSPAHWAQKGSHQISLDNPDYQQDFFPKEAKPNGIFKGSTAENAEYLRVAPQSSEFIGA

For the compound `COc1c(Cl)cccc1Nc1c(-c2ccnc3ccc(OC4(C)COC4)nc23)[nH]c2c1C(=O)NCC2` [Compound 787, 3-[(3-chloro-2-methoxyphenyl)amino]-2-[6-[(3-methyloxetan-3-yl)oxy]-1,5-naphthyridin-4-yl]-1H,5H,6H,7H-pyrrolo[3,2-c] pyridin-4-one], the IC50 in assay [1], in assay [2], in [3], in assay [4], in assay [5] and in assay [6] was less than 100 nM each time. Also, the IC50 in assay [7], in assay [8], in assay [9], in assay [10] and in [11] was less than 100 nM each time.
Regarding `COc1c(Cl)cccc1Nc1c(-c2ccncc2F)[nH]c2c1C(=O)NC[C@H]2CC1COCCO1` (stereo in doubt) [Compound 480, (7R)-3-[(3-chloro-2-methoxyphenyl)amino]-7-[(2R)-1,4-dioxan-2-ylmethyl]-2-(3-fluoropyridin-4-yl)-1H,5H,6H,7H-pyrrolo[3,2-c]pyridin-4-one], the IC50 in assay [1] was less than 100 nM; in assay [4], less than 100 nM; in assay [5], less than 100 nM; in [6], 100 to 1000 nM; in [7], less than 100 nM; in assay [8], less than 100 nM. Also, the IC50 in assay [9], in assay [10] and in assay [11] was less than 100 nM each time.
Consider `COc1c(Cl)cccc1Nc1c(-c2ccncc2F)[nH]c2c1C(=O)NCC21CN(CC(F)F)C1` [Compound 519, 3′-[(3-chloro-2-methoxyphenyl)amino]-1-(2,2-difluoroethyl)-2′-(3-fluoropyridin-4-yl)-5′,6′-dihydro-1′H-spiro[azetidine-3,7′-pyrrolo[3,2-c]pyridin]-4′-one], for which the IC50 in assay [1] was less than 100 nM; in [2] it was 100 to 1000 nM; in assay [3], 100 to 1000 nM; in assay [5] it was 100 to 1000 nM; in assay [6], greater than 1000 nM; in assay [7], less than 100 nM. Also, the IC50 in assay [8], in assay [9], in [10] and in assay [11] was less than 100 nM throughout.
On to `COc1c(F)cccc1Nc1c(-c2ccncc2F)[nH]c2c1C(=O)NC[C@H]2CC1COCCO1` (stereo in doubt) [Compound 575, (7R)-7-[(2R)-1,4-dioxan-2-ylmethyl]-3-[(3-fluoro-2-methoxyphenyl)amino]-2-(3-fluoropyridin-4-yl)-1H,5H,6H,7H-pyrrolo[3,2-c]pyridin-4-one], for which the IC50 in assay [1] is less than 100 nM; in assay [2] it was less than 100 nM; in assay [3], less than 100 nM; in assay [5], less than 100 nM; in [6] it was 100 to 1000 nM; in assay [7], less than 100 nM. Moreover, the IC50 in assay [8], in assay [9], in [10] and in [11] was less than 100 nM each time.
Turning to `COc1c(F)cccc1Nc1c(-c2ccncn2)[nH]c2c1C(=O)NCC2C[C@H]1COCCO1` (single isomer, unassigned) [Compound 530, (7R*)-7-[(2S)-1,4-dioxan-2-ylmethyl]-3-[(3-fluoro-2-methoxyphenyl)amino]-2-(pyrimidin-4-yl)-1H,5H,6H,7H-pyrrolo[3,2-c]pyridin-4-one], the IC50 in [1] was less than 100 nM; in assay [2], less than 100 nM; in [3] it was less than 100 nM; in assay [5], less than 100 nM; in assay [6] it was 100 to 1000 nM; in assay [7] it was less than 100 nM. In addition, the IC50 in assay [8], in assay [9], in assay [10] and in assay [11] was less than 100 nM each time.
For `COc1c(F)cccc1Nc1c(-c2ccncn2)[nH]c2c1C(=O)NCC2C[C@H]1COCCO1` (single isomer, unassigned) [Compound 572, (7R*)-7-[(2S)-1,4-dioxan-2-ylmethyl]-3-[(3-fluoro-2-methoxyphenyl)amino]-2-(pyrimidin-4-yl)-1H,5H,6H,7H-pyrrolo[3,2-c]pyridin-4-one], the IC50 in [1] is less than 100 nM; in [2] it was less than 100 nM; in assay [3], 100 to 1000 nM; in assay [5] it was 100 to 1000 nM; in [6], greater than 1000 nM; in assay [7], less than 100 nM. The IC50 in assay [8], in assay [9], in assay [10] and in assay [11] was less than 100 nM each time.
